Reference: ChEMBL document CHEMBL3430912, “GSK Tres Cantos Anti-Kinetoplastid Screening (TCAKS) Data”

Columns and labels:
Trypanosoma cruzi [1] = test: GSK_TCAKS: pIC50 Trypanosoma cruzi viability assay using beta-GAL activity. This assay was run at single shot at 5uM compound concentration per well. The biological reagents consisted of NIH-3T3 host cells and trypomastigotes parasitic cells; both cell types were set to a 3.3 * 10^5 cells/mL dilution in assay DMEM by means of a CASY cell counter device using a 60um capillary. 6 uL of the mixture were dispensed per well (about 1 * 10^3 host-cells and 1 * 10^3 parasites) with a Multidrop Combi dispenser. […] In all wells, the percentage of DMSO never exceeded 0.5%. Plates incubated for four days at 37C, 5% CO2. The substrate used for the assay fluorescence intensity (FLINT) readout was resorufin-beta-D-galactopiranoside (Sigma-Aldrich) at 5uM per well. It was diluted in PBS supplemented with the soft detergent Igepal (Fluka).; type: functional, organism-based, Mus musculus; settings: Tulahuen, NIH3T3
Trypanosoma cruzi [2] = test: (§1) GSK_TCAKS: pIC50 Trypanosoma cruzi Imaging: Infected Cells. […] Cells were then washed once with PBS before infection. T. cruzi trypomastigotes, collected at days 5 to 8 after infection from LLC-MK2 parasite infected cultures, were allowed to swim out for 4h at 37C from a centrifuged pellet (2,500 rpm/10 min/room temperature). Trypomastigotes were then collected and counted in a CASY Cell Counter. Trypomastigotes, in supplemented DMEM, were added to H9c2 cultures in a multiplicity of infection of 1 and incubated for 18 h. Cells were washed once with PBS before incubation of the infected H9c2 monolayer with trypsin (Life-Technologies) to detach cells from the flask. Cells were counted in a CASY Cell Counter using a 150 um capillary and their density set at 5 * 10^4 cells per mL in supplemented assay DMEM. Infected H9c2 were dispensed into 384-well poly-lysine coated assay plates at 50uL per well using a Multidrop Combi dispenser. After seeding them, the plates were incubated at 37C, 5% CO2 for 72h. Cultures were then fixed and stained by addition of 50 uL of a solution containing 8% formaldehyde and 4 uM DRAQ5 DNA dye (BioStatus, UK) per well. […] Five images were collected per well for reliable statistical analysis. Automated image analysis was performed with a script developed on Acapella High Content Imaging and Analysis Software (PerkinElmer). Output: percentage of infected cells per well as a second infection marker.; type: functional, organism-based, Rattus norvegicus; settings: H9c2, 4 h
Trypanosoma cruzi [3] = test: GSK_TCAKS: pIC50 Trypanosoma cruzi Imaging: Amastigotes/Cell. […] Cells were then washed once with PBS before infection. T. cruzi trypomastigotes, collected at days 5 to 8 after infection from LLC-MK2 parasite infected cultures, were allowed to swim out for 4h at 37C from a centrifuged pellet (2,500 rpm/10 min/room temperature). Trypomastigotes were then collected and counted in a CASY Cell Counter. Trypomastigotes, in supplemented DMEM, were added to H9c2 cultures in a multiplicity of infection of 1 and incubated for 18 h. Cells were washed once with PBS before incubation of the infected H9c2 monolayer with trypsin (Life-Technologies) to detach cells from the flask. Cells were counted in a CASY Cell Counter using a 150 um capillary and their density set at 5 * 10^4 cells per mL in supplemented assay DMEM. Infected H9c2 were dispensed into 384-well poly-lysine coated assay plates at 50uL per well using a Multidrop Combi dispenser. After seeding them, the plates were incubated at 37C, 5% CO2 for 72h. Cultures were then fixed and stained by addition of 50 uL of a solution containing 8% formaldehyde and 4 uM DRAQ5 DNA dye (BioStatus, UK) per well. […] Five images were collected per well for reliable statistical analysis. Automated image analysis was performed with a script developed on Acapella High Content Imaging and Analysis Software (PerkinElmer). Output: number of amastigotes per cell as infection level measurement.; type: functional, organism-based, Rattus norvegicus; settings: H9c2, 4 h
Trypanosoma cruzi [4] = test: as §1, with “H2C9” for “Trypanosoma cruzi”, “H9c2 Host Cardiomyocytes.” for “Infected Cells.”, “Number” for “percentage”, “H9c2 Host Cardiomyocytes nuclei to determine drug-related cytotoxicity.” for “infected cells per well as a second infection marker.”; type: functional, organism-based, Rattus norvegicus; settings: H9c2, 4 h
Leishmania donovani [5] = test: GSK_TCAKS: pIC50 Leishmania donovani viability assay using fluorescence intensity. Assay plates (1536-well) were prepared by adding 30nL per well of compound. For single shot assay, the final compound concentration was 5uM. […] Briefly, eGFP LdBOB axenic amastigotes were harvested, fixed and counted in a CASY cell counter (Roche-Applied Science). A final concentration of 1.5 * 10^5 cells per well were prepared in amastigote media containing 500 U/mL penicillin/streptomycin (Invitrogen) and 6uL was dispensed to each experimental well using a Multidrop Combi dispenser (Thermo Scientific). 6uL of assay media was dispensed to control columns used as reference for 100% compound response. Following incubation for 72 h at 37C, 5% CO2, 2 uL of resazurin was added to each well at a final concentration of 0.5 mM in phosphate buffered saline (PBS) with IGEPAL (Sigma-Aldrich), 0.05% (v/v).; type: functional, organism-based
Leishmania donovani [6] = test: (§2) GSK_TCAKS: pIC50 Leishmania donovani Imaging: Infected Macrophages. Assay plates (384-well) were prepared by adding 250nL of compound to each well. For single shot assay, the final compound concentration was 5 uM. […] Automated image analysis was performed with a script developed on Acapella High Content Imaging and Analysis Software (PerkinElmer). Output: Percent of infected macrophage cells were reported for each well.; type: functional, organism-based, Homo sapiens; settings: THP-1
Leishmania donovani [7] = test: as §2, with “Amastigotes/Macrophages.” for “Infected Macrophages.”, “Average number” for “Percent”, “amastigotes per” for “infected”, “cell” for “cells”; type: functional, organism-based, Homo sapiens; settings: THP-1
Leishmania donovani [8] = test: as §2, with “THP-1 Host” for “Infected”, “THP-1 cell count” for “Percent of infected macrophage cells”; type: functional, organism-based, Homo sapiens
[9] = test system: Trypanosoma brucei brucei; test: GSK_TCAKS: pIC50 Trypanosoma brucei viability assay using fluorescence intensity. Assay plates (1536-well) were prepared by dispensing 25nL of compound solution per well using an Echo acoustic dispenser (Labcyte).; type: functional, organism-based; settings: Lister 427, 2 h
[10] = test system: Trypanosoma brucei brucei; test: GSK_TCAKS: pIC50 Trypanosoma brucei viability assay using luminiscence. Assay plates (1536-well) were prepared. T. brucei cultures were harvested and counted in a CASY cell counter. A parasite suspension was prepared at a final concentration of 5 * 10^4 cells/mL in complete HMI9 medium and 6uL was dispensed to all wells containing compounds using a Multidrop Combi dispenser. 6uL of HMI9 media with 0.4% DMSO were dispensed to control columns. Plates were incubated for 24 h at 37C, 5% CO2 then tempered for 10 min at room temperature. ATP content was quantified by adding 4 uL of CellTiter-Glo Reagent (Promega) according to the manufacturer's instructions. Luminescence was measured using a ViewLux.; type: functional, organism-based; settings: Lister 427, CASY
[11] = GSK_TCAKS: pIC50 HepG2 human cell line viability assay using luminiscence. […] Seeding density was checked to ensure that new mono-layers were not more than 50% confluent at the time of harvesting. Cell suspension was added to 500 mL of the same medium at a final density of 1.2 * 10^5 cells/mL. This cell suspension was dispensed (25 uL, 3000 cells per well) into 384-well clear-bottom plates using a Multidrop Combi dispenser. Prior to addition of the cell suspension, the screening compounds (250 nL) were pre-dispensed into the plates with an Echo liquid handler. Plates were incubated for 48 h at 37C, 5% CO2. After incubation, plates equilibrated at room temperature for 30 min before proceeding to develop the luminescent signal. The signal developer, CellTiter-Glo Reagent, was allowed to equilibrate at room temperature for 30 min and added to the plates (25uL per well) using a Multidrop Combi dispenser. Plates were left for 10 min at room temperature for stabilization and then read using a ViewLux.; type: toxicity, cell-based
[12] = target: Sterol 14-alpha demethylase (Trypanosoma cruzi (strain CL Brener), UniProt Q7Z1V1); test: GSK_TCAKS: pIC50 CYP51 from Trypanosoma cruzi.; type: functional
Sterol 14-alpha demethylase, sequence (Q7Z1V1 whole entry): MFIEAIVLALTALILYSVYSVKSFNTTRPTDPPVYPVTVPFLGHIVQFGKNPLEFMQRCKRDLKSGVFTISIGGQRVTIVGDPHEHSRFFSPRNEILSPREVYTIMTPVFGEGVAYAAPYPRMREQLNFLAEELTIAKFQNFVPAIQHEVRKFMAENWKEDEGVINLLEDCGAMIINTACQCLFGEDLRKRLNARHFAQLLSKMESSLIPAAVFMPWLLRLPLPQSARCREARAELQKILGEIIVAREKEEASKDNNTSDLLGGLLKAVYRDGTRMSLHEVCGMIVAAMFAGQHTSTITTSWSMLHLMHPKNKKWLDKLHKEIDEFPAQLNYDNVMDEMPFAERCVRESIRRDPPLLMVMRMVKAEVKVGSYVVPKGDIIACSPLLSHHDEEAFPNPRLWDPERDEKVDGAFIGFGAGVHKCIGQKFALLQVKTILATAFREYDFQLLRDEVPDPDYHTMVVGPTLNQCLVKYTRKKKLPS

Structure (SMILES)	IC50 (Trypanosoma cruzi [1])	IC50 (Trypanosoma cruzi [2])	IC50 (Trypanosoma cruzi [3])	IC50 (Trypanosoma cruzi [4])	IC50 (Leishmania donovani [5])	IC50 (Leishmania donovani [6])	IC50 (Leishmania donovani [7])	IC50 (Leishmania donovani [8])	IC50 [9]	IC50 [10]	IC50 at 48 h [11]	IC50 [12]
Cc1ccccc1CNC(=O)CN(Cc1ccccn1)Cc1ccccn1	5.01 µM	15.8 µM	6.31 µM	> 79.4 µM	10 µM	6.31 µM	3.98 µM	> 79.4 µM	6.31 µM	20 µM	> 158 µM	100 µM
O=C(CN(Cc1ccccn1)Cc1ccccn1)NC1Cc2ccccc2C1	5.01 µM	12.6 µM	6.31 µM	> 79.4 µM	12.6 µM	5.01 µM	5.01 µM	> 79.4 µM	20 µM	12.6 µM	> 158 µM	79.4 µM
CC(CCc1ccccc1)NC(=O)CN(Cc1ccccn1)Cc1ccccn1 (configuration not stated)	2.51 µM	10 µM	3.16 µM	> 79.4 µM	7.94 µM	3.16 µM	3.16 µM	20 µM	10 µM	5.01 µM	> 158 µM	63.1 µM
O=C(CN(Cc1ccccn1)Cc1ccccn1)NCc1ccc2c(c1)OCO2	7.94 µM	12.6 µM	6.31 µM	> 79.4 µM	12.6 µM	7.94 µM	6.31 µM	> 79.4 µM	6.31 µM	20 µM	> 158 µM	100 µM
O=C(CN(Cc1ccccn1)Cc1ccccn1)NCc1csc(-c2cccs2)n1	3.98 µM	6.31 µM	2.51 µM	> 50.1 µM	12.6 µM	6.31 µM	3.16 µM	> 50.1 µM	20 µM	15.8 µM	> 100 µM	39.8 µM
Cc1nn(-c2ccccc2)nc1CNC(=O)CN(Cc1ccccn1)Cc1ccccn1	3.98 µM	10 µM	3.16 µM	> 63.1 µM	7.94 µM	5.01 µM	5.01 µM	> 63.1 µM	31.6 µM	10 µM	> 126 µM	25.1 µM
O=C(CN(Cc1ccccn1)Cc1ccccn1)NCc1ccc(-c2csnn2)cc1	3.98 µM	63.1 µM	7.94 µM	> 79.4 µM	7.94 µM	5.01 µM	5.01 µM	> 79.4 µM	12.6 µM	7.94 µM	25.1 µM	39.8 µM
O=C(CSc1nnc(-c2ccc3c(c2)OCO3)o1)N(Cc1ccco1)CC(F)(F)F	10 µM	3.16 µM	2.51 µM	> 50.1 µM	15.8 µM	7.94 µM	3.16 µM	> 50.1 µM	> 39.8 µM	> 39.8 µM	> 100 µM	25.1 µM
N#Cc1ccccc1S(=O)(=O)N1CCN(C(=O)CNC(=O)c2ccc3c(c2)OCO3)CC1	15.8 µM	1 µM	0.631 µM	> 50.1 µM	0.631 µM	5.01 µM	1.58 µM	> 50.1 µM	> 39.8 µM	> 39.8 µM	> 100 µM	79.4 µM
COc1ccc(NC(=O)c2ccc(NC(=O)CN(c3ccccc3C)S(C)(=O)=O)cc2)cc1	31.6 µM	25.1 µM	20 µM	25.1 µM	> 50.1 µM	> 50.1 µM	7.94 µM	> 50.1 µM	0.2 µM	0.794 µM	39.8 µM	6.31 µM
COc1ccc(S(=O)(=O)Nc2ccc(C(=O)Nc3nc(-c4ccccn4)cs3)cc2)cc1	0.891 µM	0.794 µM	0.631 µM	6.31 µM	1 µM	0.398 µM	0.158 µM	10 µM	0.794 µM	0.631 µM	63.1 µM	0.398 µM
